In patent US8962058B2, “High-potency sweetener composition with antioxidant and compositions sweetened therewith” (The Coca-Cola Company, priority 2005, dated 2015):

Columns and labels:
[1] = tested on: panel of experts in the sensory evaluation of foods and beverages; assay: Sensory evaluation of sweetness linger by expert panel; type: in vivo; set-up: key: 0=no sweetness linger; 1=very slight sweetness linger; 2=slight sweetness linger; 3=moderate sweetness linger; 4=moderately high sweetness linger; 5=high sweetness linger; settings: for Sweetness Linger rating as defined for the protocol's controls: scale anchors: sucrose, 500 ppm REBA control sample; for Sweetness linger rating: scale 0-5
Experimental: In a particular embodiment, a panel of assessors is used to measure the reduction of sweetness linger. Briefly described, a panel of assessors (generally 8 to 12 individuals) is trained to evaluate sweetness perception and measure sweetness at several time points from when the sample is initially taken into the mouth until 3 minutes after it has been expectorated. […] A decrease in score for a time point measured after the sample has cleared the mouth indicates there has been a reduction in sweetness perception.
The panel of assessors may be trained using procedures well known to those of ordinary skill in the art. In a particular embodiment, the panel of assessors may be trained using the Spectrum™ Descriptive Analysis Method (Meilgaard et al, Sensory Evaluation Techniques, 3rd edition, Chapter 11). Desirably, the focus of training should be the recognition of and the measure of the basic tastes; specifically, sweet. In order to ensure accuracy and reproducibility of results, each assessor should repeat the measure of the reduction of sweetness linger about three to about five times per sample, taking at least a five minute break between each repetition and/or sample and rinsing well with water to clear the mouth.
Generally, the method of measuring sweetness comprises taking a 10 mL sample into the mouth, holding the sample in the mouth for 5 seconds and gently swirling the sample in the mouth, rating the sweetness intensity perceived at 5 seconds, expectorating the sample (without swallowing following expectorating the sample), rinsing with one mouthful of water (e.g., vigorously moving water in mouth as if with mouth wash) and expectorating the rinse water, rating the sweetness intensity perceived immediately upon expectorating the rinse water, waiting 45 seconds and, while waiting those 45 seconds, identifying the time of maximum perceived sweetness intensity and rating the sweetness intensity at that time (moving the mouth normally and swallowing as needed), rating the sweetness intensity after another 10 seconds, rating the sweetness intensity after another 60 seconds (cumulative 120 seconds after rinse), and rating the sweetness intensity after still another 60 seconds (cumulative 180 seconds after rinse). Between samples take a 5 minute break, rinsing well with water to clear the mouth.
Sensory evaluation of the samples prepared in Example Set G was carried out under the following protocol, similar to that described hereinabove. In this test protocol, none of the samples were swallowed. […] Immediately upon sensing maximal sweetness, the sample was expectorated, the mouth was rinsed with water and the rate of sweetness decay (“Sweetness Linger”) was measured, where attention was focused on the sweetness 3-4 min after the water rinse. […]

[2] = Sweetness level as sucrose equivalent

Compound	Sweetness Linger rating as defined for the protocol's controls [1]	Sweetness linger rating ([1]; Example Set G: citric acid/potassium citrate composition equivalent to diet lemon-lime beverage (citrate buffer), sweetness 3-4 min after water rinse)	Sweetness linger rating ([1]; Example Set H: carbon-treated water, phosphoric acid (75%) to pH 2.4-2.5)	sucrose equivalence ([2]; 180 ppm rebaudioside A in 1:1 diluted commercial beverage)	sucrose equivalence ([2]; 400 ppm REBA in citric acid/potassium citrate composition)
OC[C@H]1O[C@@](CO)(O[C@H]2O[C@H](CO)[C@@H](O)[C@H](O)[C@H]2O)[C@@H](O)[C@@H]1O [sugar, sucrose]	0				
rebaudioside A	5	5	5	5 % sucrose	8 g sucrose
